Source: patent publication US20130337485A1, “ENZYMATIC SYNTHESIS OF ACTIVE PHARMACEUTICAL INGREDIENT AND INTERMEDIATES THEREOF” (LEK PHARMACEUTICALS D.D, priority 2010, published 2013)

Tests used:
[1] = biological target: glucose oxidase from A. niger (Aspergillus niger, UniProt P13006); conditions: cited from earlier work
[2] = biological target: T1, membrane bound glucose dehydrogenase from E. coli, the Gcd (Escherichia coli, UniProt P15877); experiment: Substrate specificity and pH optima of membrane bound glucose dehydrogenase Gcd (DCPIP method); format: biochemical; conditions: for Activity of E. coli BL21(DE3) pET30/Gcd on substrate, lysate / Activity of E. coli BL21(DE3) pET30/Gcd on substrate, resting whole cell: 50 mM substrate, 5 μM PQQ, 10 mM MgCl2
T1 construct: made in house; host or cells: E. coli BL21(DE3) carrying pET30/Gcd; not purified (resting whole cells or lysate), reconstituted with PQQ and MgCl2
T1 sequence (P15877 1-796): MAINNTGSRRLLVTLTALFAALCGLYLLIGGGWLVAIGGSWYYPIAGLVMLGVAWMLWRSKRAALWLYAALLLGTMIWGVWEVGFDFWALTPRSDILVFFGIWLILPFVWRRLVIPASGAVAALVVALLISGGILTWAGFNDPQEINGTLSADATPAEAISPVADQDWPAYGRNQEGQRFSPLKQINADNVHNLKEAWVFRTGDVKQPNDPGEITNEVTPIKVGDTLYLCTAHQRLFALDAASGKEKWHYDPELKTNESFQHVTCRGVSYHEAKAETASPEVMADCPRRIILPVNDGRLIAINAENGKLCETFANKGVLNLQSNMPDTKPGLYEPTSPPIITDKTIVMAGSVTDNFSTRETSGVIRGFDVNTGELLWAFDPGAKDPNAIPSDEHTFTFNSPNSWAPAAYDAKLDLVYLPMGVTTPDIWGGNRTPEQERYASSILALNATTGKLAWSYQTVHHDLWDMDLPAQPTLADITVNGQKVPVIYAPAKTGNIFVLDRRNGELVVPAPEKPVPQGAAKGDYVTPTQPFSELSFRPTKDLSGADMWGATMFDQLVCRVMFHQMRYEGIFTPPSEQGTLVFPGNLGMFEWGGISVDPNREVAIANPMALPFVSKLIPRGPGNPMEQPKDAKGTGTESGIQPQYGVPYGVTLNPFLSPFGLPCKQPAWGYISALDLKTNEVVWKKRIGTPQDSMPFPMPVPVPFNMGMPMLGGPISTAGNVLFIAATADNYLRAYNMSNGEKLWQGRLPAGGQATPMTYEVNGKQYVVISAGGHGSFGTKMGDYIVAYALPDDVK
Experimental: To investigate substrate specificity and pH optima of said E. coli membrane aldose dehydrogenase the above mentioned experiments were performed on the catalyst E. coli BL21 pET30/Gcd.

[3] = biological target: T2, E. coli YliI aldose dehydrogenase (Escherichia coli, UniProt P75804, A204V); experiment: Substrate specificity and pH optima of E. coli YliI aldose dehydrogenase (DCPIP method); format: biochemical; conditions: for Activity of E. coli BL21(DE3) pET30/Ylil on substrate, resting whole cell: 50 mM substrate, 5 μM PQQ, 10 mM MgCl2
T2 construct: made in house; host or cells: E. coli BL21(DE3) carrying pET30/YliI; not purified (resting whole cells or cell free lysate), reconstituted with PQQ and MgCl2
T2 sequence (P75804 21-371 A204V): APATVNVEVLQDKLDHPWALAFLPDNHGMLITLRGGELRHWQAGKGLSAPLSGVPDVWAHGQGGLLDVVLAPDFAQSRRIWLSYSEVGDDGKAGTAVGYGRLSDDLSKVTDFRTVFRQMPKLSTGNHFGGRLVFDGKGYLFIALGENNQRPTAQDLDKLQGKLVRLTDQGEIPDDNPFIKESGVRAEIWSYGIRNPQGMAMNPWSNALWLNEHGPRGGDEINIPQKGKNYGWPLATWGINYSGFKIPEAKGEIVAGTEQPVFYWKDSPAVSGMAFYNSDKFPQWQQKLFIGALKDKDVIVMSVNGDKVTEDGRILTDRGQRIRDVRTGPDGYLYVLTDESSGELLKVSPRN
Experimental: (§1) Final volume of reaction mixture was 200 μL, all components were dissolved in phosphate buffer pH 8.0.
(§2) The catalyst E. coli BL21 pET30/YliI culture obtained either as resting whole cell catalyst (obtained undertaking Procedure 1C) or as lysate (as described in Example 2). The initial pH value of reaction mixture was 8.0. All tested solutions were made in triplicates.
(§3) The second reaction mixture was prepared identically to the above with a sole difference: the pH value of assembled mixture being 6.0 (all compounds of reaction mixture were dissolved in phosphate buffer pH 6.0 and the initial pH value of reaction mixture was thus 6.0). All tested solutions were made in triplicates.
(§4) Experiment was performed as described in Example 11. In the table below are shown activities of “analyzed material” (abs[mAU min^−1 mg^−1])

[4] = biological target: T3, E. coli YliI aldose dehydrogenase (Escherichia coli, UniProt P75804); experiment: as above; format: biochemical; conditions: 50 mM substrate, 5 μM PQQ, 10 mM MgCl2
T3 construct: made in house; host or cells: E. coli BL21(DE3) carrying pET30/YliI; not purified (resting whole cells or cell free lysate), reconstituted with PQQ and MgCl2
T3 sequence (P75804 21-371 A204V): as above
Experimental: as §1, §2, §3, §4

[5] = tested on: whole cell catalyst E. coli BL21 pET30/Gcd; experiment: Whole cell catalysis capability in bioreactor using pO2 sensor; format: cell-based; conditions: pH 6.2, 37° C., 5 μM PQQ, 10 mM MgCl2
Experimental: Laboratory bioreactors Infors ISF100 with maximal volume of 2 L were used for determination of whole cell catalysis capability of E. coli aldose dehydrogenases. The reactors were stirred, aerated, temperature and pH controlled as described below. When whole cell catalysts bearing holo aldose dehydrogenases were exposed to various substrates, unusual consumption of O2 appeared.
Experiments were performed using whole cell catalyst E. coli BL21 pET30/Gcd (procedure of preparation in described in Example 1, Procedure 1A and moreover in Example 25).
Whole cell catalysts were dissolved in phosphate buffer (50 mM KH2PO4, 150 mM NaCl, pH 6.2) to concentrations of 5 g/L, 10 g/L and 20 g/L to the final volume ([…] in the bioreactor.
The initial process parameters before substrate was added were as follows: 37° C., air flow rate 1.0 L/min (1.0 VVM), stirrer speed 1000 rpm, pH 6.2 and the dissolved oxygen concentration was kept at ≧80% of saturation. 5 μM PQQ and 10 mM MgCl2 were provided into bioreactor broth. Feeding solution were 12.5% (v/v) ammonium hydroxide solution and the silicone antifoam compound synperonic antifoam (Sigma, A-5551) which were fed continuously.
The system described above is very complex in terms of mathematical description of dissolved oxygen levels over the time. On the one hand these are depending on the kLa (vessel properties, stirring, aeration, medium, temperature etc) and enzymatic kinetics on the aldose dehydrogenase on the other hand. In addition the oxygen probe delay kinetics play an important role. We have therefore found empirically, that oxygen consumption in the phase after the pulse feed of the substrate till the minimum of the dissolved oxygen in this dynamic system is best correlated to quadratic equation. A good indicator of the activity potential of the studied biocatalyst is the slope of this quadratic equation, measured at specific time value (for example t=15 seconds). The slope was calculated from the first derivative of the quadratic equation.

[6] = whole cell catalyst BL21 (DE3) pET30/Gcd 5 g/L
[7] = whole cell catalyst BL21 (DE3) pET30/Gcd 10 g/L
[8] = whole cell catalyst BL21 (DE3) pET30/Gcd 20 g/L

Chain of glucose oxidase from A. niger (P13006 17-605): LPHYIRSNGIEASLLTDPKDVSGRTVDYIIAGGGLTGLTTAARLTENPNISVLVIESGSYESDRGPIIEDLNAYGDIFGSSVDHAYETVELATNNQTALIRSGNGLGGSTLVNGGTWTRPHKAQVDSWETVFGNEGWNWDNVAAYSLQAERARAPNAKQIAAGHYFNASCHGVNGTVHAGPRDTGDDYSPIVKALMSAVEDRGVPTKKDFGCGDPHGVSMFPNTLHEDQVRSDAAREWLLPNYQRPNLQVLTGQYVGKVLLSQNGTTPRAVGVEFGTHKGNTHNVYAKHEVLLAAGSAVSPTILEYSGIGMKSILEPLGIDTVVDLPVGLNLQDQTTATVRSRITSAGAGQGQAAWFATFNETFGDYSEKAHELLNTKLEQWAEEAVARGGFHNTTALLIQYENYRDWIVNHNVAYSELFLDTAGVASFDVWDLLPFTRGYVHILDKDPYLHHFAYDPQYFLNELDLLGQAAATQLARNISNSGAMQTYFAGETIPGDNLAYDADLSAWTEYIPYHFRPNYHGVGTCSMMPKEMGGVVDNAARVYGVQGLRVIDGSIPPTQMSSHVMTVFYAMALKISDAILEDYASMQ

Row | SMILES | Reaction rate of oxidation by glucose oxidase, glucose as reference (100%) [1] | Activity of E. coli BL21(DE3) pET30/Gcd on substrate, lysate ([2]; pH 6.0) | Activity of E. coli BL21(DE3) pET30/Gcd on substrate, resting whole cell ([2]; pH 6.0) | Activity of E. coli BL21(DE3) pET30/Gcd on substrate, lysate ([2]; pH 8.0) | Activity of E. coli BL21(DE3) pET30/Gcd on substrate, resting whole cell ([2]; pH 8.0) | Activity of E. coli BL21(DE3) pET30/Ylil on substrate, resting whole cell ([3]; pH 6.0) | Activity of E. coli BL21(DE3) pET30/Ylil on substrate, resting whole cell ([3]; pH 8.0) | Activity of E. coli BL21(DE3) pET30/Ylil on substrate, lysate ([4]; pH 6.0) | Activity of E. coli BL21(DE3) pET30/Ylil on substrate, lysate ([4]; pH 8.0) | other results
1 | C[C@@H](O)[C@@H](O)[C@H](O)[C@@H](O)C=O [6-deoxy-D-glucose] | 10% | – | – | – | – | – | – | – | – | –
2 | O=C[C@H](O)[C@@H](O)[C@H](O)[C@H](O)CO [D-glucose] | – | 2830 abs[mAU min^−1 mg^−1] | 2840 abs[mAU min^−1 mg^−1] | 1305 abs[mAU min^−1 mg^−1] | 1260 abs[mAU min^−1 mg^−1] | 350 abs[mAU min^−1 mg^−1] | 356 abs[mAU min^−1 mg^−1] | 210 abs[mAU min^−1 mg^−1] | 321 abs[mAU min^−1 mg^−1] | Slope of quadratic equation of oxygen consumption after substrate pulse [5, 6]: 45813; Slope of quadratic equation of oxygen consumption after substrate pulse [5, 7]: 114771; Slope of quadratic equation of oxygen consumption after substrate pulse [5, 8]: 230631
3 | O=CC[C@@H](O)[C@H](O)[C@H](O)CO [2-deoxy-D-glucose] | 20-30% | – | – | – | – | – | – | – | – | –
4 | CC(=O)OC[C@@H]1C[C@@H](O)CC(=O)O1 | – | – | – | – | – | – | – | – | – | Added product concentration above which slight reduction in reaction rates was observed ([2]; E. coli BL21 pET30/Gcd, pH 6.0, in addition of 10 g/L substrate): more than 55 g/L; Added product concentration above which slight reduction in reaction rates was observed ([3]; E. coli BL21 pET30/YliI, pH 8.0, in addition of 10 g/L substrate): more than 35 g/L
5 | CO[C@@H]([C@H](O)[C@@H](O)C=O)[C@H](O)CO [4-O-methyl-D-glucose] | 15% | – | – | – | – | – | – | – | – | –
6 | CC(=O)OC[C@@H]1C[C@@H](O)CC(O)O1 (stereo partly drawn) | – | 2403 abs[mAU min^−1 mg^−1] | 2403 abs[mAU min^−1 mg^−1] | 1013 abs[mAU min^−1 mg^−1] | 1105 abs[mAU min^−1 mg^−1] | 270 abs[mAU min^−1 mg^−1] | 1897 abs[mAU min^−1 mg^−1] | 273 abs[mAU min^−1 mg^−1] | 1913 abs[mAU min^−1 mg^−1] | Substrate concentration above which slight substrate inhibition to the reaction rate was observed ([2]; E. coli BL21 pET30/Gcd, pH 6.0): above 60 g/L; DCPIP discoloration rate compared with D-glucose or D-galactose as substrate ([2]; E. coli BL21 pET30/Gcd, pH 6.0, 2.5-10 g/L substrate): about two times slower; Substrate concentration above which slight substrate inhibition to the reaction rate was observed ([3]; E. coli BL21 pET30/YliI, pH 8.0): above 40 g/L; DCPIP discoloration rate compared with D-glucose or D-galactose as substrate ([3]; E. coli BL21 pET30/YliI, pH 8.0, 2.5-10 g/L substrate): about two times faster; Slope of quadratic equation of oxygen consumption after substrate pulse [5, 6]: 38652; Slope of quadratic equation of oxygen consumption after substrate pulse [5, 7]: 87425; Slope of quadratic equation of oxygen consumption after substrate pulse [5, 8]: 163562
7 | OCC(O)CO [glycerol] | – | 202 abs[mAU min^−1 mg^−1] | 215 abs[mAU min^−1 mg^−1] | 100 abs[mAU min^−1 mg^−1] | 102 abs[mAU min^−1 mg^−1] | 85 abs[mAU min^−1 mg^−1] | 247 abs[mAU min^−1 mg^−1] | 70 abs[mAU min^−1 mg^−1] | 235 abs[mAU min^−1 mg^−1] | –
